In article PMC11767673 (2024):

Key:
[1] = system: OR7 aptamer (DNA, aptamer) CAAGGAAAATCCTTCAACGAAGTGGG; assay: transmembrane electrochemical impedance spectroscopy (ADuCM350 impedance reader), Langmuir fit; details: 137 mM NaCl, 2.7 mM KCl, 5 mM MgCl2; PBS pH 7.4, 3% DMSO, room temperature; aptamer immobilised on membrane
[2] = system: OR7 aptamer (DNA, aptamer) CAAGGAAAATCCTTCAACGAAGTGGG; assay: transmembrane electrochemical impedance spectroscopy (commercial potentiostat), Langmuir fit; details: 137 mM NaCl, 2.7 mM KCl, 5 mM MgCl2; PBS pH 7.4, 3% DMSO, room temperature; aptamer immobilised on membrane
[3] = system: OR7 aptamer (DNA, aptamer) CAAGGAAAATCCTTCAACGAAGTGGG; assay: transmembrane electrochemical impedance spectroscopy (potentiostat and impedance reader); details: 137 mM NaCl, 2.7 mM KCl, 5 mM MgCl2; PBS pH 7.4, 3% DMSO, room temperature; aptamer immobilised on membrane; control, highest concentration not given

KD [1] | KD [2] | binding [3] | SMILES
4 nM | 2 nM |  | CCN(CC)Cc1cc(Nc2ccnc3cc(Cl)ccc23)ccc1O
 |  | no | CCN(CC)CCCC(C)Nc1ccnc2cc(Cl)ccc12 (stereo not drawn)
